Laboratory results from the CheMixHub viscosity set.
Several values for one entry are separate records, joined by “and”; a condition that tells them apart may be missing. Identical values can stand only once. ± gives the uncertainty stated by the source.

Test: xn = mol fraction of the nth substance listed

CN(CCO)CCO + O
viscosity
Settings | 293.15 K | 298.15 K | 303.15 K | 308.15 K | 313.15 K | 323.15 K
100 kPa, x1 = 0.131 | – | 9.324 ± 0.38 mPa·s | – | – | – | –
101 kPa, x1 = 0.06 | – | – | 2.548 ± 0.085 mPa·s | – | 1.906 ± 0.061 mPa·s | –
101 kPa, x1 = 0.1 | 7.325 ± 0.88 mPa·s | – | 4.901 ± 0.51 mPa·s | – | 3.458 ± 0.32 mPa·s | 2.551 ± 0.22 mPa·s
101 kPa, x1 = 0.11 | – | – | 5.312 ± 0.17 mPa·s | – | 3.729 ± 0.12 mPa·s | 2.777 ± 0.087 mPa·s
101 kPa, x1 = 0.1991 | 26.19 ± 1.9 mPa·s | – | 15.41 ± 1.1 mPa·s | – | 9.684 ± 0.66 mPa·s | 6.517 ± 0.43 mPa·s
101 kPa, x1 = 0.2985 | 56.54 ± 3.6 mPa·s | – | 31.07 ± 2 mPa·s | – | 18.14 ± 1.1 mPa·s | 11.42 ± 0.72 mPa·s
101 kPa, x1 = 0.3975 | 84.73 ± 5.2 mPa·s | – | 45.33 ± 2.8 mPa·s | – | 25.74 ± 1.6 mPa·s | 15.8 ± 0.97 mPa·s
101 kPa, x1 = 0.4963 | 103.2 ± 6.4 mPa·s | – | 54.91 ± 3.3 mPa·s | – | 31.5 ± 1.9 mPa·s | 18.96 ± 1.2 mPa·s
101 kPa, x1 = 0.5949 | 113.9 ± 7 mPa·s | – | 60.93 ± 3.7 mPa·s | – | – | 20.85 ± 1.3 mPa·s
101 kPa, x1 = 0.6934 | 115.5 ± 7.1 mPa·s | – | 62.48 ± 3.8 mPa·s | – | 35.73 ± 2.2 mPa·s | 21.72 ± 1.3 mPa·s
101 kPa, x1 = 0.7916 | 113.6 ± 7 mPa·s | – | 61.99 ± 3.8 mPa·s | – | 35.44 ± 2.1 mPa·s | 21.95 ± 1.3 mPa·s
101 kPa, x1 = 0.8896 | 109.8 ± 6.8 mPa·s | – | 59.49 ± 3.6 mPa·s | – | 35.12 ± 2.1 mPa·s | –
101 kPa, x2 = 0.815 | – | 17.44 ± 0.24 mPa·s | – | – | – | –
101 kPa, x2 = 0.9 | – | 9.66 ± 0.11 mPa·s | – | – | – | –
101 kPa, x2 = 0.91 | 6.35 ± 1.3 mPa·s | 5.4 ± 0.06 mPa·s and 5.25 ± 1.1 mPa·s | 4.34 ± 0.87 mPa·s | – | – | –
101 kPa, x2 = 0.9391 | – | 3.27 ± 0.03 mPa·s | – | – | – | –
101 kPa, x2 = 0.94 | 3.53 ± 0.71 mPa·s | 2.99 ± 0.6 mPa·s | 2.54 ± 0.51 mPa·s | – | 1.89 ± 0.38 mPa·s | 1.45 ± 0.29 mPa·s
101 kPa, x2 = 0.96 | 2.264 ± 0.45 mPa·s | 1.921 ± 0.38 mPa·s | 1.695 ± 0.34 mPa·s | – | 1.32 ± 0.26 mPa·s | –
101.3 kPa, x1 = 0.02 | 1.541 ± 0.25 mPa·s | 1.316 ± 0.25 mPa·s | – | – | 0.931 ± 0.24 mPa·s | 0.773 ± 0.24 mPa·s
101.3 kPa, x1 = 0.04 | 2.268 ± 0.26 mPa·s | 1.924 ± 0.25 mPa·s | 1.697 ± 0.25 mPa·s | – | 1.325 ± 0.24 mPa·s | 1.068 ± 0.24 mPa·s
101.3 kPa, x1 = 0.06 | 3.637 ± 0.29 mPa·s | 3.036 ± 0.26 mPa·s | 2.594 ± 0.25 mPa·s | – | – | –
101.3 kPa, x1 = 0.09 | 6.345 ± 0.37 mPa·s | 5.245 ± 0.3 mPa·s | 4.325 ± 0.28 mPa·s | – | 3.107 ± 0.26 mPa·s | 2.367 ± 0.25 mPa·s
101.3 kPa, x1 = 0.1 | 11.84 ± 0.64 mPa·s | 9.196 ± 0.41 mPa·s | 7.437 ± 0.34 mPa·s | – | 5.101 ± 0.29 mPa·s | 3.599 ± 0.27 mPa·s
101.3 kPa, x1 = 0.2 | 22.64 ± 0.98 mPa·s | 17.25 ± 0.72 mPa·s | – | – | 8.843 ± 0.39 mPa·s | 6.015 ± 0.31 mPa·s
101.3 kPa, x1 = 0.3 | 37.14 ± 2 mPa·s | 29.03 ± 1.1 mPa·s | 22.69 ± 0.82 mPa·s | – | 14.91 ± 0.57 mPa·s | 9.618 ± 0.42 mPa·s
101.3 kPa, x1 = 0.4 | 71.95 ± 3.1 mPa·s | 58.29 ± 2 mPa·s | 42.41 ± 1.6 mPa·s | – | 24.45 ± 1 mPa·s | 14.36 ± 0.59 mPa·s
101.3 kPa, x1 = 0.6 | 101.9 ± 7.8 mPa·s | 81.67 ± 5 mPa·s | 54.66 ± 1.9 mPa·s | – | 34.23 ± 1.4 mPa·s | 19.22 ± 0.8 mPa·s
101.33 kPa, x1 = 0.017 | – | – | 1.137 ± 0.01 mPa·s | – | 0.907 ± 0.008 mPa·s | –
101.33 kPa, x1 = 0.036 | 2.262 ± 0.022 mPa·s | 1.941 ± 0.019 mPa·s | 1.686 ± 0.016 mPa·s | – | – | 1.051 ± 0.01 mPa·s
101.33 kPa, x1 = 0.061 | 3.69 ± 0.042 mPa·s | 3.092 ± 0.035 mPa·s | – | – | – | –
101.33 kPa, x1 = 0.092 | 6.452 ± 0.085 mPa·s | 5.253 ± 0.07 mPa·s | 4.359 ± 0.057 mPa·s | 3.671 ± 0.048 mPa·s | 3.112 ± 0.041 mPa·s | 2.309 ± 0.03 mPa·s
101.33 kPa, x1 = 0.13 | 11.7 ± 0.18 mPa·s | 9.208 ± 0.14 mPa·s | 7.436 ± 0.11 mPa·s | 6.097 ± 0.092 mPa·s | – | 3.642 ± 0.055 mPa·s
